According to US20070248944A1, “Preventive and Remedy for Collagen or Elastin Metabolic Disorder” (YAMAGUCHI UNIVERSITY, priority 2004, published 2007):

What was measured:
[1] = system: abdominal aortic aneurysm model (angiotensin II-infused apoE knockout mice); experiment: JNK inhibition experiment using an apoE knockout mouse aneurysm model (angiotensin II infusion, prevention); type: in vivo; settings: by week 5 after initiation of angiotensin II infusion; control group 6.25%
Procedure: An abdominal aortic aneurysm model was generated through continuous administration of angiotensin II to apolipoprotein E (apo E) knockout mice according to Daugherty et al's method (J. Clin. Invest. 105: 1605-1612 (2000)). Specifically, mini-osmotic pump (Alzet) was implanted into 24-week-old apoE knockout male mice and angiotensin II (1 μg/min/kg) was continuously infused. These model mice were affected with hyperlipidemia, hypertension, and marked aortic arteriosclerosis. As a result of 4 weeks of angiotensin II infusion, aneurysm formation was observed mainly in the suprarenal abdominal aorta of these mice. Some of these mice died due to aneurysmal rupture. […] Simultaneously with the initiation of continuous infusion of angiotensin II, daily subcutaneous injection of a JNK inhibitor SP600125 (SP group: 8 mice) or a solution (control group: 16 mice) without JNK inhibitor was initiated. The method employed herein for administration of SP600125 was similar to that in Example 1 above. On week 4, the maximum diameter of each abdominal aorta was measured using ultrasonic diagnostic equipment.

[2] = system: abdominal aortic aneurysm model (angiotensin II-infused apoE knockout mice); experiment: Aneurysm therapy and regression in apoE knockout mouse aneurysm model; type: in vivo; settings: 8 weeks of injection; control group 0% ±13%; p<0.05
Procedure: After completion of 4 weeks of angiotensin II infusion, the lumen diameter of each abdominal aortic aneurysm was measured using ultrasonic diagnostic equipment. The mice were evenly divided into 2 groups based on the measured values. Immediately after grouping, daily subcutaneous injection of the […] inhibitor SP600125 (SP group) or a solution alone (control group) was initiated. The method employed herein for administration of SP600125 and the solution was similar to that in Example 1 above. On week 8 after the initiation of injection, the aneurysm diameter of each abdominal aortic aneurysm was measured again using ultrasonic diagnostic equipment.

MMP-9 = MMP-9 secretion in TNF-α-stimulated THP-1 cells, gelatin zymography; type: cell-based, human; settings: 0, 1, 2, and 5 μM peptide, TNF-α 50 ng/ml, 48 hours
Procedure: To verify the effects of a JNK inhibitor peptide, an experiment was conducted using MMP-9 as an index, which is thought to be important in the pathogenesis of aneurysms, in a cultured cell system. Cells used herein were macrophage cells (THP-1) mainly expressing MMP-9 in human aneurysms. Specifically, a JNK inhibitor peptide D-JNKI1 (ALEXIS) was administered at various concentrations (0, 1, 2, and 5 μM D-JNKI1) in advance to cultured THP-1 cells. D-TAT (ALEXIS) was used as a control peptide. At 24 hours after peptide administration. the cells were stimulated with TNF-α (50 ng/ml), an inflammatory cytokine. 48 hours later, culture solutions were collected and then the amounts of MMP-9 secreted in the culture solutions were subjected to quantitative analysis by the gelatin zymography method.

[3] = system: human abdominal aortic aneurysmal wall tissue; experiment: 3H-labeled proline incorporation in human aneurysmal wall culture system; type: cell-based; settings: 5 mM peptide; TNF-α 100 ng/ml; 48 hours; p<0.05
Procedure: Aneurysmal wall tissue excised at the time of operation of human abdominal aortic aneurysms was chopped and then cultured. The ability of aneurysmal wall to newly synthesize collagen was analyzed using 3H-labeled proline that is abundantly contained in collagen according to the Kidwell et al's method (Methods in Enzymology 147: 407-414 (1987)). Specifically, 3H-labeled proline (3 μCi/ml) was added to media to initiate culture. Immediately after culture initiation, a JNK inhibitor peptide (D-JNKI1, 5 mM, ALEXIS) was administered. D-TAT (5 mM, ALEXIS) was used as a control peptide. At 12 hours after peptide administration, stimulation was performed with TNF-α (R&D Systems, 100 ng/ml) TNF-α is an inflammatory cytokine that is increased in human aortic aneurysms and is known to activate JNK. 48 hours later, proteins in the culture supernatants were collected. 3H-labeled proline that had been incorporated for novel synthesis was measured using a scintillation counter.

[4] = system: vascular smooth muscle cells isolated from a rat aorta; experiment: Collagen synthesis (3H-labeled proline, collagenase-sensitive fraction) in vascular smooth muscle cell primary culture; type: cell-based; parameters: dose or concentration left out as unconfirmed; settings: 72 hours; serum-free media; p<0.01
Procedure: An experiment was conducted using a vascular smooth muscle cell primary culture system isolated from a rat aorta. Among newly-synthesized proteins into which 3H-labeled proline had been incorporated, fractions that are specifically degraded by collagen degrading enzymes were subjected to quantitative analysis according to Kidwell et al's method (Methods in Enzymology, 147: 407-414 (1987)). 3H-labeled proline (3 μCi/ml) was added to serum-free media to initiate culture. Immediately after culture initiation, a JNK inhibitor peptide (D-JNK1, 0, 1, 2, and 5 mM, ALEXIS) was administered. At 72 hours after peptide administration, proteins in the culture supernatants were collected. Furthermore, only fractions that had been solubilized by collagen degrading enzymes were collected. 3H-labeled proline that had been incorporated for novel collagen synthesis was measured using a scintillation counter.

lysyl oxidase = experiment: Lysyl oxidase mRNA expression in serum-deficient vascular smooth muscle cells, real time PCR; type: cell-based, rat; parameters: dose or concentration left out as unconfirmed; settings: serum-deficiency stress; day 6; p<0.01
Procedure: An experiment was conducted using a vascular smooth muscle cell primary culture system isolated from a rat aorta. Serum deficiency state was created at the initiation of the experiment. JNK of cultured cells was activated by serum-deficiency stress. Immediately after the initiation of the experiment, a JNK inhibitor peptide (D-JNKI1, 5 mM, ALEXIS) was administered. D-TAT (5 mM, ALEXIS) was used as a control peptide. On day 6 after peptide administration, the cells were harvested. Lysyl oxidase expression was subjected to quantitative analysis at the mRNA level using the real time PCR method. Lysyl oxidase (LOX) is an enzyme essential for the maturation of collagen fiber or elastin fiber. Decreased level of LOX indicates lowered ability to synthesize collagen or elastin.

| Compound | Cumulative survival rate [1] | Reduction percentage of aneurysm diameter (before vs after injection) [2] | MMP-9 secretion due to TNF-α (MMP-9) | 3H-labeled proline incorporation decreased by TNF-α [3] | Ability to synthesize collagen [4] | Lysyl oxidase expression level (mRNA) (lysyl oxidase) |
| --- | --- | --- | --- | --- | --- | --- |
| Oc1c2ccccc2c2c3c(cccc13)N=N2 [SP600125, Anthra[1-9-cd]pyrazol-6(2H)-one] | 87.5% | 17% ±10% | – | – | – | – |
| c-Jun N-terminal Kinase Peptide Inhibitor 1, D-stereoisomer [D-JNKI1] | – | – | suppressed MMP-9 secretion due to TNF-α in a concentration-dependent manner | significantly restored | 1.6±0.1 times | inhibited a decrease in lysyl oxidase expression level |
